This passage reports EC50 results from patent publication US9718828B2 (MERCK SHARP & DOHME CORP., priority 2011, dated 2017).

Structures can show the parent of a compound that is named as a salt.

The target in the first assay is Btk enzyme (His-Btk) (Homo sapiens (Human), UniProt Q06187). Briefly: Btk enzyme activity, IMAP fluorescence polarization assay (Assay Method A).
Sequence of Btk enzyme (His-Btk) (Q06187 whole entry): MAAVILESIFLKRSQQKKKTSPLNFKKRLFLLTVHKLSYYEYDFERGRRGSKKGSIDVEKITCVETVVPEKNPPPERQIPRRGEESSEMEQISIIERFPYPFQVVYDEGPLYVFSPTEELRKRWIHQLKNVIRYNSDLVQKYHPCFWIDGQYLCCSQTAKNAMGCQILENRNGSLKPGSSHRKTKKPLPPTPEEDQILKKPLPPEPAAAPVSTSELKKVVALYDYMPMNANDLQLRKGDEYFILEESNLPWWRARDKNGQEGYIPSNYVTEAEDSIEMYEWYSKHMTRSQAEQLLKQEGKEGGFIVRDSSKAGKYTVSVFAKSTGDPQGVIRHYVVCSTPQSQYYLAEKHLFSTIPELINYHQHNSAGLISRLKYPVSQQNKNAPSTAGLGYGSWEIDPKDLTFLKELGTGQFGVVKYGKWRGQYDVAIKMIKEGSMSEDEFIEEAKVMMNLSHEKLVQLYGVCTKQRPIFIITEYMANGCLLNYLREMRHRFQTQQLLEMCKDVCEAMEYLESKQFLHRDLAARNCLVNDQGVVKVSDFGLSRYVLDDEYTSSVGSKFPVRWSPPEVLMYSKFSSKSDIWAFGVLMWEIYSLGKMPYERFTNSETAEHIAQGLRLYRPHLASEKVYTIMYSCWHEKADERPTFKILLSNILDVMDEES
Conditions: not given
(In general: Fluorescence polarisation rises when a labelled molecule tumbles more slowly, as on binding a larger partner.)
Compound `CC(CNC(=O)OCc1ccccc1)c1nc(-c2ccc(C(=O)Nc3cc(C(F)(F)F)ccn3)cc2)c2c(N)nccn12` (centres unmarked) [Example 132, benzyl 2-(8-amino-1-(4-(4-(trifluoromethyl)pyridin-2-ylcarbamoyl)phenyl)imidazo[1,5-a]pyrazin-3-yl)propylcarbamate] returned an EC50 of 10 to 100 nM.

The compound `CCc1cnc(NC(=O)c2ccc(-c3nc(C4CCOCC4)n4ccnc(N)c34)cc2)s1` [Example 28, 4-(8-amino-3-(tetrahydro-2H-pyran-4-yl)imidazo[1,5-a]pyrazin-1-yl)-N-(5-ethylthiazol-2-yl)benzamide] yielded an EC50 of 10 to 100 nM.

In turn, `CC1CC1C(=O)N1CCC[C@@H](c2nc(-c3ccc(C(=O)Nc4cc(C5CC5)ccn4)cc3)c3c(N)nccn23)C1` (stereo partly drawn) [Example 62, 4-(8-amino-3-((3R)-1-(2-methylcyclopropanecarbonyl)piperidin-3-yl)imidazo[1,5-a]pyrazin-1-yl)-N-(4-cyclopropylpyridin-2-yl)benzamide] gave an EC50 below 10 nM.

Compound `Nc1nccn2c1c(-c1ccc(C(=O)Nc3nc4c(s3)COCC4)cc1)nc2[C@H]1CC[C@H](O)CC1` [Example 15, 4-(8-amino-3-((trans)-4-hydroxycyclohexyl)imidazo[1,5-a]pyrazin-1-yl)-N-(6,7-dihydro-4H-pyrano[4,3-d]thiazol-2-yl)benzamide] had an EC50 of 10 to 100 nM.

`COc1cccc(-c2cnc(N)c3c(-c4ccc(C(=O)Nc5cc(C(F)(F)F)ccn5)cc4)nc([C@@H]4CCCN(C(=O)C5(C)COC5)C4)n23)c1` [Example 320, (R)-4-(8-amino-5-(3-methoxyphenyl)-3-(1-(3-methyloxetane-3-carbonyl)piperidin-3-yl)imidazo[1,5-a]pyrazin-1-yl)-N-(4-(trifluoromethyl)pyridin-2-yl)benzamide] returned an EC50 of 10 to 100 nM.

The compound `NCCCCC(=O)N1CCC[C@@H](c2nc(-c3ccc(C(=O)Nc4ccccn4)cc3)c3c(N)nccn23)C1` [Example 54, (R)-4-(8-amino-3-(1-(5-aminopentanoyl)piperidin-3-yl)imidazo[1,5-a]pyrazin-1-yl)-N-(pyridin-2-yl)benzamide] displayed an EC50 of 10 to 100 nM.

`CSCCC(=O)N1CCC[C@@H](c2nc(-c3ccc(C(=O)Nc4cc(C(F)(F)F)ccn4)cc3)c3c(N)nccn23)C1` [Example 69, (R)-4-(8-amino-3-(1-(3-(methylthio)propanoyl)piperidin-3-yl)imidazo[1,5-a]pyrazin-1 yl)-N-(4-(trifluoromethyl)pyridin-2-yl)benzamide] yielded an EC50 below 10 nM.

In the case of `CCC(=O)N1CCC2(CC1)CC2c1nc(-c2ccc(C(=O)Nc3ccccn3)cc2)c2c(N)nccn12` (centres unmarked) [Example 153, 4-(8-amino-3-(6-propionyl-6-azaspiro[2.5]octan-1-yl)imidazo[1,5-a]pyrazin-1-yl)-N-(pyridin-2-yl)benzamide], the EC50 was in the range of 100 to 1000 nM.

`CO[C@@H](C)C(=O)N1CCC[C@@H](c2nc(-c3ccc(C(=O)Nc4ccccn4)cc3)c3c(N)nccn23)C1` [Example 57, 4-(8-amino-3-((R)-1-((S)-2-methoxypropanoyl)piperidin-3-yl)imidazo[1,5-a]pyrazin-1-yl)-N-(pyridin-2-yl)benzamide] had an EC50 of 10 to 100 nM.

`COC1CN(c2nc(-c3ccc(C(=O)Nc4ccccn4)cc3)c3c(N)nccn23)C1` [Example 217, 4-(8-amino-3-(3-methoxyazetidin-1-yl)imidazo[1,5-a]pyrazin-1-yl)-N-(pyridin-2-yl)benzamide] displayed an EC50 of 100 to 1000 nM.

In the case of `CO[C@H]1CC[C@@H](c2nc(-c3ccc(C(=O)Nc4cc(C#N)ccn4)cc3)c3c(N)nccn32)CC1` [Example 41, 4-(8-amino-3-((cis)-4-methoxycyclohexyl)imidazo [1,5-a]pyrazin-1-yl)-N-(4-cyanopyridin-2-yl)benzamide], the EC50 was below 10 nM.

Take `Nc1nccn2c([C@@H]3CCCN(Cc4ccc[nH]4)C3)nc(-c3ccc(C(=O)Nc4cc(C5CC5)ccn4)cc3)c12` [Example 144, (R)-4-(3-(1-((1H-pyrrol-2-yl)methyl)piperidin-3-yl)-8-aminoimidazo[1,5-a]pyrazin-1-yl)-N-(4-cyclopropylpyridin-2-yl)benzamide, TFA salt]: the EC50 lay in the range of 10 to 100 nM.

Take `Nc1nccn2c([C@@H]3CCCN(C(=O)C4(O)CCC4)C3)nc(-c3ccc(C(=O)Nc4cc(C(F)(F)F)ccn4)cc3)c12` [Example 81, (R)-4-(8-amino-3-(1-(1-hydroxycyclobutanecarbonyl)piperidin-3-yl)imidazo[1,5-a]pyrazin-1-yl)-N-(4-(trifluoromethyl)pyridin-2-yl)benzamide]: the EC50 is below 10 nM.

The compound `Nc1ncnc2c1c(-c1ccc(C(=O)Nc3cc(C(F)(F)F)ccn3)cc1)nn2[C@@H]1CCCN(C(=O)[C@H]2CCCO2)C1` [Example 262, 4-(4-amino-1-((R)-1-((R)-tetrahydrofuran-2-carbonyl)piperidin-3-yl)-1H-pyrazolo[3,4-d]pyrimidin-3-yl)-N-(4-(trifluoromethyl)pyridin-2-yl)benzamide] displayed an EC50 below 10 nM.

Staying with this assay, now noted: read-out: EC50 Btk activity values - Assay Method A; IMAP-FP, 60 min pre-incubation, 5 μM ATP; class 100-1000 is given as ≧100 nM-<1 μM.
As to `CCc1cnc(N)c2c(-c3ccc(C(=O)Nc4cc(C(F)(F)F)ccn4)cc3)nc([C@@H]3CCCN(C(=O)C4(C)COC4)C3)n12` [Example 308, (R)-4-(8-amino-5-ethyl-3-(1-(3-methyloxetane-3-carbonyl)piperidin-3-yl)imidazo[1,5-a]pyrazin-1-yl)-N-(4-(trifluoromethyl)pyridin-2-yl)benzamide], the EC50 was below 10 nM.

As for `Nc1nccn2c(N3CCC[C@@H](NC(=O)C4CC4)C3)nc(-c3ccc(C(=O)Nc4cc(C(F)(F)F)ccn4)cc3)c12` [Example 220, (R)-4-(8-amino-3-(3-(cyclopropanecarboxamido)piperidin-1-yl)imidazo[1,5-a]pyrazin-1-yl)-N-(4-(trifluoromethyl)pyridin-2-yl)benzamide], the EC50 is below 10 nM.

Consider `CC1(C(=O)N2CCC[C@@H](n3nc(-c4ccc(C(=O)Nc5cc(C(F)(F)F)ccn5)cc4)c4c(N)ncnc43)C2)CCC1` [Example 266, (R)-4-(4-amino-1-(1-(1-methylcyclobutanecarbonyl)piperidin-3-yl)-1H-pyrazolo[3,4-d]pyrimidin-3-yl)-N-(4-(trifluoromethyl)pyridin-2-yl)benzamide], for which the EC50 was below 10 nM.

In the case of `CCNC(=O)N1CCC[C@@H](c2nc(-c3ccc(C(=O)Nc4ccccn4)cc3)c3c(N)nccn23)C1` [Example 48, (R)-3-(8-amino-1-(4-(pyridin-2-ylcarbamoyl)phenyl)imidazo[1,5-a]pyrazin-3-yl)-N-ethylpiperidine-1-carboxamide], the EC50 is below 10 nM.

Consider `CCCc1ccnc(NC(=O)c2ccc(-c3nc([C@H]4CC[C@H](O)CC4)n4ccnc(N)c34)cc2)c1` [Example 3, 4-(8-amino-3-((trans)-4-hydroxycyclohexyl)imidazo[1,5-a]pyrazin-1-yl)-N-(4-propylpyridin-2-yl)benzamide], for which the EC50 was below 10 nM.

Take `CCNC(=O)N[C@@H]1CCCN(c2nc(-c3ccc(C(=O)Nc4cc(C(F)(F)F)ccn4)cc3)c3c(N)nccn23)C1` [Example 221, (R)-4-(8-amino-3-(3-(3-ethylureido)piperidin-1-yl)imidazo[1,5-a]pyrazin-1-yl)-N-(4-(trifluoromethyl)pyridin-2-yl)benzamide]: the EC50 is below 10 nM.

The term EC50 denotes the concentration at which the effect is half-maximal.
